The values that follow are results of earlier work, collected in US11568956B2, “Methods for identifying inhibitors of amyloid protein aggregation” (Treventis Corporation, priority 2008, dated 2023).

Structures can show the parent of a compound that is named as a salt.

Usually IC50 stands for the concentration at which inhibition is half-maximal.

For one data set, the target named is Aβ (Homo sapiens, UniProt P05067). Conditions: read-out: Expt (IC50); cited from earlier work.
Aβ, sequence (P05067 672-711 limits assumed): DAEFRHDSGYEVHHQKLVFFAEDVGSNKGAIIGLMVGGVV
`CCCN1C(=CC=CC=Cc2sc3ccccc3[n+]2CCC)Sc2ccccc21` [3,3′-dipropyl thiodicarbocyanine iodine]: the concentration for half-maximal inhibition (IC50) is 0.3 µM. On to `NCCc1ccc(O)c(O)c1` [dopamine chloride], for which the IC50 was 28.6 µM.

Staying with this data set, now noted: unit not in the table, μM; Masuda test set; read-out: Expt (IC50); cited from earlier work.
Regarding `O=C(c1ccc(O)cc1O)c1ccc(O)cc1O` [2,2′,4,4′-tetrahydroxybenzaphenone], the 50% inhibitory concentration (IC50) was greater than 40 µM. For the molecule `O=C(c1ccccc1O)c1ccccc1O` [2,2′-dihydroxybenzophenone], the half-maximal inhibitory concentration (IC50) was greater than 40 µM. On to `O=C(c1ccc(O)cc1O)c1ccc(O)c(O)c1O` [2,3,4,2′,4′-pentahydroxybenzophenone], for which the IC50 is 2.8 µM. Regarding `O=C(c1ccccc1)c1ccc(O)c(O)c1O` [2,3,4-trihydroxybenzophenone], the IC50 is 3.1 µM. As to `Cc1ccc2nc(-c3ccc(N)cc3)sc2c1` [2-(4-aminophenyl)-6-methylbenzothiazole], the IC50 is 2 µM.

For `Cc1ccc2nc(-c3ccc(N(C)C)cc3)sc2c1` [2-[4-(dimethylamino)phenyl]-6-methylbenzothiazole], the IC50 was 2 µM. For the molecule `O=C(c1ccc(O)cc1)c1ccc(O)cc1` [4,4′-dihydroxybenzophenone], the IC50 was greater than 40 µM. `O=C1NC(=O)c2cc(Nc3ccccc3)c(Nc3ccccc3)cc21` [4,5-dianilinophthalimide]: the IC50 is 2.9 µM.

For the molecule `O=c1cc(-c2ccc(O)cc2)oc2cc(O)cc(O)c12` [Apigenin], the concentration for half-maximal inhibition (IC50) is greater than 40 µM. For the molecule `O=C(O)c1cc(/C=C/c2ccc(/C=C/c3ccc(O)c(C(=O)O)c3)c(Br)c2)ccc1O` [BSB], the half-inhibitory concentration (IC50) is 6.4 µM. Take `Nc1c(/N=N/c2ccc(-c3ccc(/N=N/c4cc(S(=O)(=O)O)c5ccccc5c4N)cc3)cc2)cc(S(=O)(=O)O)c2ccccc12` [Congo red]: the IC50 is 0.9 µM.

Turning to `O=C(O)c1cc(/C=C/c2ccc(/C=C/c3ccc(O)c(C(=O)O)c3)c(F)c2)ccc1O` [FSB], the IC50 is 1.9 µM. In the case of `O=S(=O)(O)c1ccc2c(N=Nc3ccc(N=Nc4ccccc4)cc3)c(O)c(S(=O)(=O)O)cc2c1` [Ponceau SS], the IC50 was 1.2 µM. `CC(=O)c1ccc2c(c1)N(CCCN(C)C)c1ccccc1S2` [acetopromazine maleate salt]: the IC50 was greater than 40 µM. For `C[C@@H]1[C@H](O)[C@@H](C)/C=C/C=C/C=C/C=C/C=C/C=C/C=C/[C@H](O[C@@H]2O[C@H](C)[C@@H](O)[C@H](N)[C@@H]2O)C[C@@H]2O[C@](O)(C[C@@H](O)C[C@@H](O)[C@H](O)CC[C@@H](O)C[C@@H](O)CC(=O)O[C@H]1C)C[C@H](O)[C@H]2C(=O)O` [amphotericin B], the half-inhibitory concentration (IC50) was 2.2 µM.

Consider `C[C@H]1[C@H](C)CC[C@]2(C(=O)O)CC[C@]3(C)C(=CC[C@@H]4[C@@]5(C)C[C@@H](O)[C@H](O)[C@@](C)(CO)[C@@H]5CC[C@]43C)[C@H]12` [asiatic acid], for which the IC50 is greater than 40 µM. For the molecule `CN(C)c1ccc2nc3ccc(N)cc3[s+]c2c1` [azure A], the half-inhibitory concentration (IC50) is 0.4 µM. As for `CCN(CCO)c1ccc(/N=N/c2sc3cc(OC)ccc3[n+]2C)cc1` [basic blue 41], the IC50 is 1.4 µM. With `Nc1ccc(N=Nc2ccc(-c3ccc(N=Nc4c(S(=O)(=O)O)cc5cc(S(=O)(=O)O)c(N=Nc6ccccc6)c(O)c5c4N)cc3)cc2)c(N)c1` [chlorazol black E], the IC50 was 0.3 µM.

Take `O=C(/C=C/c1ccc(O)c(O)c1)O[C@@H]1C[C@](O)(C(=O)O)C[C@@H](O)[C@H]1O` [chlorogenic acid]: the IC50 is greater than 40 µM. As for `CN(C)CCCN1c2ccccc2Sc2ccc(Cl)cc21` [chlorpromazine hydrochloride], the IC50 was greater than 40 µM. Regarding `Oc1cc(O)c2cc(O)c(-c3ccc(O)c(O)c3)[o+]c2c1` [cyanidin], the IC50 is 4 µM. Consider `O=c1c(-c2ccc(O)cc2)coc2cc(O)ccc12` [daidzein], for which the 50% inhibitory concentration (IC50) was greater than 40 µM. On to `COc1cccc2c1C(=O)c1c(O)c3c(c(O)c1C2=O)C[C@@](O)(C(C)=O)C[C@@H]3O[C@H]1C[C@H](N)[C@H](O)[C@H](C)O1` [daunorubicin hydrochloride], for which the IC50 is 1.4 µM. For the molecule `Oc1cc(O)c2cc(O)c(-c3cc(O)c(O)c(O)c3)[o+]c2c1` [delphinidin], the IC50 is 3 µM. Consider `O=C(O[C@@H]1Cc2c(O)cc(O)cc2O[C@@H]1c1ccc(O)c(O)c1)c1cc(O)c(O)c(O)c1` [epicatechin 3-gallate], for which the IC50 is 3 µM. As for `Oc1cc(O)c2c(c1)O[C@H](c1ccc(O)c(O)c1)[C@H](O)C2` [epicatechin], the concentration for half-maximal inhibition (IC50) is greater than 40 µM.

Take `O=C(O[C@@H]1Cc2c(O)cc(O)cc2O[C@@H]1c1cc(O)c(O)c(O)c1)c1cc(O)c(O)c(O)c1` [epigallocatechin gallate]: the half-inhibitory concentration (IC50) was 2 µM.

Consider `Oc1cc(O)c2c(c1)O[C@H](c1cc(O)c(O)c(O)c1)[C@H](O)C2` [epigallocatechin], for which the IC50 is 7 µM.

In the case of `O=C(c1cc(O)c(O)c(O)c1)c1ccc(O)c(O)c1O` [exifone], the 50% inhibitory concentration (IC50) is 0.7 µM. Consider `CCCCC[C@@H](O)[C@H]1C(=O)O[C@H](C)[C@@H](O)/C=C/C=C/C=C/C=C/C=C(\C)[C@@H](O)C[C@H](O)C[C@H](O)C[C@H](O)C[C@H](O)C[C@H](O)C[C@@H]1O` [filipin III], for which the 50% inhibitory concentration (IC50) was 14.6 µM.

With `Oc1cc(O)c2c(c1)O[C@H](c1cc(O)c(O)c(O)c1)[C@@H](O)C2` [gallocatechin], the IC50 was 7 µM. As for `CCCCC[C@H](O)CC(=O)CCc1ccc(O)c(OC)c1` [gingerol], the half-maximal inhibitory concentration (IC50) was 25 µM. With `C[C@@H]1C(=O)O[C@H]2C[C@@]34[C@H]5C[C@@H](C(C)(C)C)[C@]36[C@@H](OC(=O)[C@@H]6O)O[C@@]4(C(=O)O5)[C@]21O` [ginkgolide A], the IC50 is greater than 40 µM. On to `CC1C(=O)OC2C(O)C34C5CC(C(C)(C)C)C36C(OC(=O)C6O)OC4(C(=O)O5)C12O` (stereo not shown) [ginkgolide B], for which the IC50 was 11 µM.

On to `O=c1c(O)c(-c2ccc(O)c(O)c2)oc2c(O)c(O)cc(O)c12` [gossypetin], for which the IC50 was 1.3 µM. For `O=c1cc(-c2ccc(Oc3c(O)cc4oc(-c5ccc(O)cc5)cc(=O)c4c3O)cc2)oc2cc(O)cc(O)c12` [hinokiflavone], the IC50 was 5 µM. On to `Cc1cc(O)c2c(=O)c3c(O)cc(O)c4c5c(O)cc(O)c6c(=O)c7c(O)cc(C)c8c1c2c(c34)c(c78)c65` [hypericin], for which the IC50 was 0.9 µM. For the molecule `O=c1c(O)c(-c2ccc(O)cc2)oc2cc(O)cc(O)c12` [kaempferol], the IC50 was 8 µM. `O=c1cc2oc3cc(O)c(-c4ccc(O)cc4O)cc3nc-2cc1-c1ccc(O)cc1O` [lacmoid]: the IC50 was 1.4 µM. Take `C[C@H](CCC(=O)NCCS(=O)(=O)O)[C@H]1CC[C@H]2[C@@H]3[C@H](O)C[C@@H]4C[C@H](O)CC[C@]4(C)[C@H]3CC[C@]12C` [laurochenodeoxycholic acid]: the IC50 is greater than 40 µM. In the case of `O=c1cc(-c2ccc(O)c(O)c2)oc2cc(O)cc(O)c12` [luteolin], the IC50 is 3 µM. Take `C=CCc1ccc(O)c(-c2cc(CC=C)ccc2O)c1` [magnolol]: the IC50 was greater than 40 µM. On to `CN(C)c1ccc(N=Nc2ccccc2)cc1` [methyl yellow], for which the IC50 was 1.5 µM.

On to `CN(C)c1ccc2nc3ccc(=[N+](C)C)cc-3sc2c1` [methylene blue], for which the IC50 was 2.3 µM.

As for `O=C1C[C@@H](c2ccc(O)cc2)Oc2cc(O)cc(O)c21` [naringenin], the IC50 was 25 µM. As to `OCCN1CCN(CCCN2c3ccccc3Sc3ccc(Cl)cc32)CC1` [perphenazine], the concentration for half-maximal inhibition (IC50) was greater than 40 µM. `Oc1cc(O)c2c(c1)O[C@H](c1ccc(O)c(O)c1)[C@H](O)[C@H]2c1c(O)cc(O)c2c1O[C@H](c1ccc(O)c(O)c1)[C@@H](O)C2` [procyanidin B1]: the half-inhibitory concentration (IC50) is 14 µM. As to `Oc1cc(O)c2c(c1)O[C@H](c1ccc(O)c(O)c1)[C@H](O)[C@H]2c1c(O)cc(O)c2c1O[C@H](c1ccc(O)c(O)c1)[C@H](O)C2` [procyanidin B2], the half-maximal inhibitory concentration (IC50) is greater than 40 µM. As for `CN(C)CCCN1c2ccccc2Sc2ccccc21` [promazine hydrochloride], the concentration for half-maximal inhibition (IC50) was greater than 40 µM.

For `CCC(=O)c1ccc2c(c1)N(CCCN(C)C)c1ccccc1S2` [propionylpromazine hydrochloride], the IC50 was greater than 40 µM.

With `O=c1c(O)c(-c2ccc(O)c(O)c2)oc2cc(O)cc(O)c12` [quercetin], the IC50 was 5 µM. Regarding `CCN(CC)CCCC(C)Nc1c2ccc(Cl)cc2nc2ccc(OC)cc12` (stereo not shown) [quinacrine], the IC50 is 8.4 µM. Turning to `CO[C@H]1/C=C/O[C@@]2(C)Oc3c(C)c(O)c4c(O)c(c(/C=N/N5CCN(C)CC5)c(O)c4c3C2=O)NC(=O)/C(C)=C\C=C\[C@H](C)[C@H](O)[C@@H](C)[C@@H](O)[C@@H](C)[C@H](OC(C)=O)[C@@H]1C` [rifampicin], the 50% inhibitory concentration (IC50) is 4.9 µM. For `O=C(/C=C/c1ccc(O)c(O)c1)O[C@H](Cc1ccc(O)c(O)c1)C(=O)O` [rosmarinic acid], the concentration for half-maximal inhibition (IC50) is 12 µM.

Turning to `C[C@@H]1O[C@@H](OC[C@H]2O[C@@H](Oc3c(-c4ccc(O)c(O)c4)oc4cc(O)cc(O)c4c3=O)[C@H](O)[C@@H](O)[C@@H]2O)[C@H](O)[C@H](O)[C@H]1O` [rutin], the 50% inhibitory concentration (IC50) is 32 µM.

Turning to `c1cc2c(cc1[C@H]1OC[C@H]3[C@@H]1CO[C@@H]3c1ccc3c(c1)OCO3)OCO2` [sesamin], the IC50 was greater than 40 µM.

In the case of `C[C@H](CCC(=O)NCCS(=O)(=O)O)[C@H]1CC[C@H]2[C@@H]3CC[C@@H]4C[C@H](O)CC[C@]4(C)[C@H]3CC[C@]12C` [taurolithocholic acid], the IC50 is greater than 40 µM. Regarding `C[C@H](CCC(=O)NCCS(=O)(=O)O)[C@H]1CC[C@H]2[C@@H]3CC[C@@H]4C[C@H](OS(=O)(=O)O)CC[C@]4(C)[C@H]3CC[C@]12C` [taurolithocholic aicd 3-sulfate], the half-maximal inhibitory concentration (IC50) was greater than 40 µM. In the case of `C[C@H](CCC(=O)NCCS(=O)(=O)O)[C@H]1CC[C@H]2[C@@H]3[C@@H](O)C[C@@H]4C[C@H](O)CC[C@]4(C)[C@H]3CC[C@]12C` [tauroursodeoxycholic acid], the IC50 is greater than 40 µM. Regarding ginkgolide C, the IC50 was greater than 40 µM. Turning to phthalocyanine tetrasulfonate, the IC50 is 3.2 µM.

Turning to taurohydroxycholic acid, the IC50 is greater than 40 µM. With theaflavone, the half-maximal inhibitory concentration (IC50) is 2 µM. As to tocopherol, the IC50 is greater than 40 µM.
